Experimental data taken from patent publication US20040009507A1, “Concatenated nucleic acid sequence” (Domantis, Ltd., priority 2000, published 2004).
Positions of bridges follow the written chain, without caps; N, C: chain ends. Residues, ends and D or L forms follow the SMILES beside them.

Experiments:
ferritin = target: T1, ferritin (Equus caballus, UniProt P02791+Q8MIP0); assay: Apparent dissociation constant of n-unit HKPRKE MBP fusions for ferritin; set-up: species or system horse; settings: n-unit of HKPRKE motif fused to maltose-binding protein
T1 construct: ferritin (from horse spleen, Sigma cat. F-4503); purchased Sigma F-4503; host or cells: horse spleen
Description: In contrast, the results from the Fd-1×6-mer, Fd-2×6-mer, and Fd-4×6-mer peptide libraries indicate that concatenation is crucial to reach the selection threshold for binding to ferritin. […] By competition ELISA, we observed that these peptide constructs had affinities to ferritin very similar to that of peptide F6. […] In a randomised polypeptide, the likelihood that down-mutations will offset up-mutations increases with its length, so that ultimately most longer polypeptides will have average sequence profiles. […]
For competition ELISA with ferritin-binding peptide, serial dilutions of MBP-fusions (see below) were incubated with 10 nM biotinylated ferritin in 2% MPBS overnight at 4° C., then added to pre-blocked MBP-(HKPRKE)8-coated wells for 30 min. Bound biotinylated ferritin was detected by incubation with streptavidin horseradish peroxidase conjugate (Sigma) and OPD.
Apparent dissociation constants were calculated using the BIAevaluation program and the 1:1 Langmuir dissociation model from sensorgrams (BIAcore) collected upon immobilisation of 200-400 resonance units (RU) of biotinylated ligands (sEPOR-Fc or MBP-fusion) on SA-sensor chips followed by injection of various analytes (sEPOR-Fc, MBP-fusion, 0.1 to 2 μM concentration range) diluted in HBS-EP buffer (BIAcore), at a flow rate of 80 μl/min at 25° C.

EC-EpoR-Fc = target: T2, EC-EpoR-Fc (Homo sapiens, UniProt P19235); assay: Competition ELISA with synthetic trMP peptide, phage binding to immobilised EC-EpoR-Fc
T2 construct: (EC-EpoR, amino acids 1 to 225); made in house; host or cells: Pichia pastoris X-33 (pPICZαA, secreted)
T2 sequence (P19235 25-249): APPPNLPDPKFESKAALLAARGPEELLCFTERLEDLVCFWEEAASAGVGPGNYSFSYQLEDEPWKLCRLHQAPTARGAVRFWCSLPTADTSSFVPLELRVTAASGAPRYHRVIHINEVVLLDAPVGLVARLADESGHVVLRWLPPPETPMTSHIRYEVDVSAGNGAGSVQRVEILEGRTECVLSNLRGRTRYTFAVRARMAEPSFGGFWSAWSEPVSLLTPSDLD
Protocol: Without a crystal structure of the MP/Ec-EpoR-Fc complex, it is however unclear whether the contribution of an MP residue in these parts to EC-EpoR-Fc binding is related to direct peptide-receptor interaction or to intra-molecular interactions. In an attempt to delineate the MP peptide binding site on EC-EpoR-Fe, a competition ELISA using a synthetic truncated version of the MP peptide (trMP, from A3 to Y28) was performed. […] A similar result (i.e. binding outside the biological ligand-binding site) has been reported for the symmetrical molecule SB-247464 which recognises the homodimeric G-CSF receptor (Tian et al., 1998). Large and complex proteins with modular architecture indeed appear to have multiple ligand-binding sites located at the slits between symmetrical modules.
For competition ELISA with synthetic trMP peptide (see below), serial dilutions of MP peptide (starting from 1 mM) were mixed with 2.5×10^8 phage in 2% MPBS, then added to pre-blocked EC-EpoR-Fc-coated wells for 2 hours. Bound phage were detected as described above. […] Bound EC-EpoR-Fc was detected with protein A-horseradish peroxidase conjugate ( 1/4000 dilution, Sigma), and o-phenylene diamine dihydrochloride (OPD) as substrate. After 10-15 minutes, the reactions were stopped with 50 μl of 4 N H2SO4 and absorbances were measured at 492 nm.

T1 sequence (P02791 2-175 limits assumed): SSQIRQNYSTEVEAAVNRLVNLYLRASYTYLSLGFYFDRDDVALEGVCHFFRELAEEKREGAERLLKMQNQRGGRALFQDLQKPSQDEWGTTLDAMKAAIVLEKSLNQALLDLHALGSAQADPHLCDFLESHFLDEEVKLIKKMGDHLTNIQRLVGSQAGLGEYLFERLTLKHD
T1 sequence (Q8MIP0 whole entry, the tested form may be a part): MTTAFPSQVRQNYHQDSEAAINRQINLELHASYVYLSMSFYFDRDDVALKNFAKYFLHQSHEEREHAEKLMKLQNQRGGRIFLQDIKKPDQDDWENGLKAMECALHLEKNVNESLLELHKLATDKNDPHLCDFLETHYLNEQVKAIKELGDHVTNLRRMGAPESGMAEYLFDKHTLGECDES

Kd (ferritin)	IC50 (EC-EpoR-Fc; read-out: IC50 for blocking MP phage-peptide binding to immobilised EC-EpoR-Fc)	effect on signal of phage displaying the EMP1 peptide (EC-EpoR-Fc; trMP concentration up to 1 mM)	Molecule
~0.5 µM			(HKPRKE)4 [F6 peptide]
	10 µM	no reduction in signal	CC(C)C[C@H](NC(=O)[C@@H](NC(=O)[C@H](C)NC(=O)CNC(=O)[C@H](Cc1c[nH]cn1)NC(=O)[C@@H]1CSSC[C@H](NC(=O)[C@H](C)N)C(=O)N[C@@H](Cc2c[nH]cn2)C(=O)NCC(=O)N[C@@H](C)C(=O)N[C@@H]([C@@H](C)O)C(=O)N[C@@H](CC(C)C)C(=O)N[C@@H](CCC(=O)O)C(=O)N[C@@H](CCC(N)=O)C(=O)N[C@@H]([C@@H](C)O)C(=O)N[C@@H](Cc2ccc(O)cc2)C(=O)N[C@@H](C)C(=O)N[C@@H](CC(C)C)C(=O)N2CCC[C@H]2C(=O)N[C@@H](CC(C)C)C(=O)N[C@@H](C)C(=O)N1)[C@@H](C)O)C(=O)N[C@@H](CCC(=O)O)C(=O)N[C@@H](CCC(N)=O)C(=O)N[C@H](C(=O)N[C@@H](Cc1ccc(O)cc1)C(=O)O)[C@@H](C)O [trMP, NH2-ACHGATLEQTYALPL ACHGATLEQTY-CO2H] (H-ACHGATLEQTYALPLACHGATLEQTY-OH; disulfide 2-17 (inferred))
